CC(C(=O)O)c1ccc2c(c1)[nH]c1ccc(Cl)cc12 (stereo not given)
solubility (mole fraction)
Settings	in acetic acid	in ethylene glycol	in formic acid	in glycerin	in isobutanol	in isopropanol	in n-butanol	in n-octanol	in n-propanol	in propylene glycol
288.15 K	0.00687	0.00349	0.000435	0.000115	0.00942	0.0145	0.014	0.0143	0.0157	0.0055
293.15 K	0.00706	0.00433	0.000547	0.000147	0.0103	0.0179	0.0174	0.0177	0.0195	0.0069
298.15 K	0.00863	0.00585	0.00074	0.000209	0.0137	0.0267	0.0243	0.0248	0.0315	0.00753
303.15 K	0.00998	0.00715	0.00116	0.000301	0.0177	0.031	0.0283	0.0295	0.0378	0.00936
308.15 K	0.0126	0.00861	0.00146	0.000437	0.0243	0.0359	0.0346	0.035	0.0418	0.0121
313.15 K	0.0174	0.0117	0.00201	0.00052	0.0287	0.0436	0.0389	0.0391	0.0507	0.0153
318.15 K	0.0216	0.0168	0.00287	0.000851	0.0357	0.048	0.0441	0.0448	0.0598	0.0183
323.15 K	0.0268	0.0194	0.00388	0.00133	0.0432	0.0601	0.0526	0.0537	0.0743	0.0223
